According to US20130253048A1, “Pharmaceutical Composition for Promoting Osteogenesis Containing Axial-equatorial Aryl-oriented Furofuran-type Lignan, and Pharmaceutical Preparation, Functional Food Product, and Health Food Product Comprising Composition” (ERINA CO., INC., priority 2010, published 2013):

Experiments:
[1] = system: ovariectomized mouse (type I osteoporosis model animal); test: Change of bone mass in type I osteoporosis model animal (ovariectomized mice, dosing 3 months, femur pQCT); format: in vivo; details: for Bone density Cancellous bone, relative value / Bone density whole bone, relative value / Cortical bone Bone density, relative value / Cortical bone Bone thickness, relative value / Cortical bone adventitia diameter, relative value / Cortical bone lining membrane diameter, relative value / Polar axis bone strength, relative value (Table 3): Sham group = 100; for Polar axis strength (polar coordinates strength): SSI from pQCT; for Bone density Cancellous bone / Bone density whole bone: right femur, pQCT
Source text: Female Slc: ddy mice of 4 weeks old (Japan SLC, Inc.) was operated with ovariectomy to use as a type I osteoporosis model animal. Also, in order to delete the affection by invasion, a group which is operated without ovariectomy (Sham operation) is set (Sham group). These were the […] model animals.
Animal bedding were changed twice a week and always to use all fresh one, CRF-1 (Oriental Yeast Co., Ltd.) is fed as feed and deionized water as drinking water were freely given. Their body weights were weighed twice a week by the end of the experiment.
Fargesin was dissolved in 30 mL of a solution (it is referred to as “TD solution”, hereinbelow) containing 4% dimethyl sulfoxide (it is referred to as “DMSO”, hereinbelow) and 4% TWEEN 80 (both were purchased from Wako Pure Chemical Industries, Ltd.) so as that a dosage amount of fargesin becomes 20 mg/kg body wt/day, or […].
After the surgical operation, the mice were adapted to the circumstances for 5 days, and then they were divided to the Sham group, the negative control, the positive control group, and the test substance administration group (6 mice per group). The ovariectomized mice were used for the negative control group, the positive control group, and the test substance administration group.
Fargesin solution was daily administrated to the ovariectomized mice in the test group at the dosage of 20 mg/kg body wt/day (it is referred to as “F20 group”, hereinbelow) or 100 mg/kg body wt/day (it is referred to as “F100 group”, hereinbelow) for 3 month p.o.
In order to study effects of fargesin on the bone, the femur, the largest long bone, was used.
The mice in each group were killed by the cervical dislocation under diethyl ether anesthesia. Their right femurs were excised with muscles, and the muscles were removed from the femur after the excision. Lengths of the excised bones from the mice in the groups were measured, and they were dipped in 70% ethanol to be fixed.
In FIG. 3, the bone was shown schematically. The long bone (tubular bone) was composed of two thick and rounded ends (epiphysis), and thin and long part between them (a shaft). The bone extends to longitudinal direction, depending on the growth of a plate-shape epiphyseal cartilage (a growth plate) between the epiphysis and the shaft. The region of 1 mm proximal side from the A position for a measurement was set to that from 1 mm proximal region (epiphysis) from the distal growth plate as decided as the measurement region.
The bone density was measured by using the peripheral quantitative computed tomography (pQCT, XCT Research SA+, Stratec Medizintechnik GmbH, Merk Ltd) (FIG. 3B). The measurement was performed under the conditions: a diameter of 90 mm, a voxel size of 0.12 mm, a CT speed of 10 mm/sec, and a block number of 1. Bone mineral content (mg/mm), bone density (mg/cm^3), and cross section of the bone (mm^2) of the entire of tomographic images (whole bone area) were calculated.
Next, the area of the cancellous bone was extracted (peel mode 20), and then the bone mineral amount (mg/mm), the section of the bone (mm^2), and the bone density (mg/cm^3) were calculated. Further to the cortical bone, the bone mineral amount (mg/mm), the bone density (mg/cm^3), the section of the bone (mm^2), a bone thickness (mm), the periosteum perimeter of the cortical bone (mm), and the endosteum perimeter of the cortical bone (mm) were calculated.
Based on the bone diameter and the bone density measured by the pQCT, SSI was calculated. SSI is composed of Polar SSI (torsion strength in polar coordination), X-axis SSI (strength in X axis, three-point bending strength), and Y-axis SSI (Y axis strength, three-point lateral bending strength), and it is expressed by the following general equation.
Wherein, Z is the coefficient of the cross section (mm^3), CBD is the bone density of the cortical bone (mg/cm^3), and ND is the physiological bone density (1200 mg/cm^3). The coefficient Z is shown as the following equation.

MC3T3-E1 cells = test: Osteoblast activation, ALP activity in MC3T3-E1; format: cell-based, mouse
Description: MC3T3-E1 cells ((IAA) the Institution of Physical and Chemical Research), osteoblast-like cell line derived from the mouse fetus cranial bone cells, were inoculated into the 96 well plate at 4,000 cells/well. As a medium, the basal medium prepared in the Example 3 supplemented with fargesin at 2 to 80 μM was used. Pre-culture was performed by using the basal medium only under the conditions of 5% CO2 and 37 degree centigrade for 3 days. After that, the conditioned medium was changed to fresh medium with fargesin; the culture was performed under the conditions of 5% CO2 and 37 degree centigrade for 3 days. On the day 4 from the culture start, the conditioned medium was changed to the fresh medium; the culture was further performed under the conditions of 5% CO2 and 37 degree centigrade for 3 days. After the termination of the culture, the following MTT test, measurement of ALP activities, and the staining were performed.
Measurement of the ALP activity, statistical processing of the data, and the observation of differentiated cells were performed as the same way as those in Example 3, except the staining of the osteoclast cells were omitted.

TRACP5b = test: Serum TRACP5b of OVX mice (bone metabolism marker); format: in vivo, mouse
Description: All obtained blood from the heart under diethyl ether anesthesia at dissection was stored at 4 degree centigrade for 24 hours. Then, the blood was centrifuged at 3,000 rpm (4,000×g) for 15 minutes to separate the sera.
According to the protocol of Mouse TRAP™ Assay (Immuno-diagnostic Systems Ltd, the United of Kingdom), TRACP5b in the obtained sera was determined.

[2] = F20 group: 20 mg/kg body wt/day p.o.
[3] = F100 group: 100 mg/kg body wt/day p.o.
[4] = OVX mice, F20 group: 20 mg/kg body wt/day p.o., 3 months
[5] = OVX mice, F100 group: 100 mg/kg body wt/day p.o., 3 months

## COc1ccc([C@@H]2OC[C@H]3[C@@H]2CO[C@@H]3c2ccc3c(c2)OCO3)cc1OC [fargesin, Fargesin]
[1]; [2]
  Bone density Cancellous bone, relative value: 123.0
  Bone density whole bone, relative value: 100.8
  Cortical bone Bone density, relative value: (97.4)
  Cortical bone Bone thickness, relative value: (91.1)
  Cortical bone adventitia diameter, relative value: (105.3)
  Cortical bone lining membrane diameter, relative value: (110.8)
  Polar axis bone strength, relative value (Table 3): 104.2
[1]; [3]
  Bone density Cancellous bone, relative value: 131.3
  Bone density whole bone, relative value: 102.2
  Cortical bone Bone density, relative value: (95.6)
  Cortical bone Bone thickness, relative value: (102.5)
  Cortical bone adventitia diameter, relative value: (104.2)
  Cortical bone lining membrane diameter, relative value: (104.9)
  Polar axis bone strength, relative value (Table 3): 71.6
[1]; [4]
  Cortical bone Bone density: 859.483 ± 2.479 mg/mL
  Cortical bone Bone thickness: 0.329 ± 0.026 mm
  Cortical bone adventitia diameter: 8.4160 ± 0.116 mm
  Cortical bone lining membrane diameter: 6.347 ± 0.160 mm
  Polar axis bone strength (Table 3): 2.005 ± 0.154 mm^3
  bone mineral mass, cancellous bone: 0.855±0.067 mg/mm
  bone mineral mass, cortical bone: 2.087±0.160 mg/mm
  bone mineral mass, whole bone: 3.638±0.164 mg/mm
  cross section area of the bone, cortical bone: 2.427±0.185 mm^2
  cross section area of the bone, whole bone: 5.643±0.152 mm^2
  Polar axis strength (polar coordinates strength): 1.615±0.090 mm^3
  Bone density Cancellous bone: 431.283 ± 30.506 mg/mL
  Bone density whole bone: 644.367 ± 20.387 mg/mL
[1]; [5]
  Cortical bone Bone density: 843.55 ± 8.714 mg/mL
  Cortical bone Bone thickness: 0.370 ± 0.051 mm
  Cortical bone adventitia diameter: 8.3300 ± 0.278 mm
  Cortical bone lining membrane diameter: 6.010 ± 0.313 mm
  Polar axis bone strength (Table 3): 1.265 ± 0.147 mm^3
  bone cross section, whole bone: 5.550±0.351 mm^2
  bone mineral mass, cancellous bone: 0.920±0.102 mg/mm
  bone mineral mass, cortical bone: 2.240±0.320 mg/mm
  bone mineral mass, whole bone: 3.660±0.326 mg/mm
  cross section area of the bone, cortical bone: 2.640±0.361 mm^2
  Polar axis strength (polar coordinates strength): 1.666±0.087 mm^3
  Bone density Cancellous bone: 460.500 ± 36.222 mg/mL
  Bone density whole bone: 653.300 ± 29.083 mg/mL
MC3T3-E1 cells; 60 to 80 μM, MC3T3-E1
  ALP stained image of osteoblast-like cells: many osteoblast stained in blue were observed
MC3T3-E1 cells; Mus musculus, 2 μM, MC3T3-E1, negative control = 100
  activity at 2 µM: 82.8 ± 8%
MC3T3-E1 cells; Mus musculus, 6 μM, MC3T3-E1, negative control = 100
  activity at 6 µM: 89.8 ± 9.8%
MC3T3-E1 cells; Mus musculus, 20 μM, MC3T3-E1, negative control = 100
  activity at 20 µM: 99.8 ± 13.4%
MC3T3-E1 cells; Mus musculus, 60 μM, MC3T3-E1, negative control = 100
  activity at 60 µM: 180 ± 31.5%
MC3T3-E1 cells; Mus musculus, 80 μM, MC3T3-E1, negative control = 100
  activity at 80 µM: 167 ± 32.7%
TRACP5b; 40 mg administration group p.o.
  level of TRACP5b in the sera: significantly decreased
TRACP5b; 2, 20, 40 mg/kg/day p.o.
  level of TRACP5b in the sera: dose-dependently decreased
